Where two headings read alike, the source gives them in different places.
System: Direct Seeded Rice and weed species
Assay: Postemergence herbicidal activity in direct seeded rice, visual rating after 20-22 days and probit GR20/GR50/GR80/GR90 (Table 14)
Format: in vivo
Conditions: for pest or weed control at 17.5 g/ha / pest or weed control at 35 g/ha / pest or weed control at 70 g/ha: post-emergence, 504 h, postemergence; for pest or weed control at 17.5 g/ha: 17.5 g ai/ha; for pest or weed control at 35 g/ha: 35 g ai/ha; for pest or weed control at 70 g/ha: 70 g ai/ha
Outline: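 Rice and weeds grown in loam–sand soil (pH about 8.1) in greenhouse to 2nd–3rd true leaf, then sprayed postemergence at 187 L/ha in acetone/DMSO with 1.25% (v/v) Agri-dex crop oil. Injury rated visually 0–100 after 20-22 days versus untreated plants; GR20, GR50, GR80, GR90 obtained by probit analysis across dose rates.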

[1] = BRAPP (broadleaf signalgrass, Brachiaria platyphylla), read-out: Visual Growth Reduction (%) 21 Days After Application BRAPP
[2] = CYPDI (small-flower flatsedge, Cyperus difformis), read-out: Visual Growth Reduction (%) 21 Days After Application CYPDI
[3] = CYPES (yellow nutsedge, Cyperus esculentus), read-out: Visual Growth Reduction (%) 21 Days After Application CYPES
[4] = CYPIR (rice flatsedge, Cyperus iria), read-out: Visual Growth Reduction (%) 21 Days After Application CYPIR
[5] = DIGSA (large crabgrass, Digitaria sanguinalis), read-out: Visual Growth Reduction (%) 21 Days After Application DIGSA
[6] = ECHCG (barnyardgrass, Echinochloa crus-galli), read-out: Visual Growth Reduction (%) 21 Days After Application ECHCG
[7] = ECHCO (junglerice, Echinochloa colonum), read-out: Visual Growth Reduction (%) 21 Days After Application ECHCO
[8] = LEFCH (Chinese sprangletop, Leptochloa chinensis), read-out: Visual Growth Reduction (%) 21 Days After Application LEFCH
[9] = ORYSJ (Oryza sativa, rice crop), read-out: Visual Growth Reduction (%) 21 Days After Application ORYSJ
[10] = ORYSK (Oryza sativa, rice crop), read-out: Visual Growth Reduction (%) 21 Days After Application ORYSK
[11] = SCPJU (Japanese bulrush, Schoenoplectus juncoides Roxb.), read-out: Visual Growth Reduction (%) 21 Days After Application SCPJU
[12] = SEBEX (hemp sesbania, Sesbania exaltata), read-out: Visual Growth Reduction (%) 21 Days After Application SEBEX

COC(=O)c1nc(-c2ccc3c(c2F)OC(F)(F)O3)c(F)c(N)c1Cl [Compound 10]
GR50 BRAPP (BRAPP (Brachiaria platyphylla), probit analysis, dose for 50 percent growth reduction): 7 g ai/ha | GR80 BRAPP (BRAPP (Brachiaria platyphylla), probit analysis, dose for 80 percent growth reduction): 16 g ai/ha | GR90 BRAPP (BRAPP (Brachiaria platyphylla), probit analysis, dose for 90 percent growth reduction): 24 g ai/ha | GR50 CYPDI (CYPDI (Cyperus difformis), probit analysis, dose for 50 percent growth reduction): 4 g ai/ha | GR80 CYPDI (CYPDI (Cyperus difformis), probit analysis, dose for 80 percent growth reduction): 8 g ai/ha | GR90 CYPDI (CYPDI (Cyperus difformis), probit analysis, dose for 90 percent growth reduction): 10 g ai/ha | GR50 CYPES (CYPES (Cyperus esculentus), probit analysis, dose for 50 percent growth reduction): <18 g ai/ha | GR80 CYPES (CYPES (Cyperus esculentus), probit analysis, dose for 80 percent growth reduction): <18 g ai/ha | GR90 CYPES (CYPES (Cyperus esculentus), probit analysis, dose for 90 percent growth reduction): <18 g ai/ha | GR50 CYPIR (CYPIR (Cyperus iria), probit analysis, dose for 50 percent growth reduction): 6 g ai/ha | GR80 CYPIR (CYPIR (Cyperus iria), probit analysis, dose for 80 percent growth reduction): 10 g ai/ha | GR90 CYPIR (CYPIR (Cyperus iria), probit analysis, dose for 90 percent growth reduction): 13 g ai/ha | GR50 DIGSA (DIGSA (Digitaria sanguinalis), probit analysis, dose for 50 percent growth reduction): 1 g ai/ha | GR80 DIGSA (DIGSA (Digitaria sanguinalis), probit analysis, dose for 80 percent growth reduction): 8 g ai/ha | GR90 DIGSA (DIGSA (Digitaria sanguinalis), probit analysis, dose for 90 percent growth reduction): 21 g ai/ha | GR50 ECHCG (ECHCG (Echinochloa crus-galli), probit analysis, dose for 50 percent growth reduction): 10 g ai/ha | GR80 ECHCG (ECHCG (Echinochloa crus-galli), probit analysis, dose for 80 percent growth reduction): 14 g ai/ha | GR90 ECHCG (ECHCG (Echinochloa crus-galli), probit analysis, dose for 90 percent growth reduction): 16 g ai/ha | GR50 ECHCO (ECHCO (Echinochloa colonum), probit analysis, dose for 50 percent growth reduction): 6 g ai/ha | GR80 ECHCO (ECHCO (Echinochloa colonum), probit analysis, dose for 80 percent growth reduction): 14 g ai/ha | GR90 ECHCO (ECHCO (Echinochloa colonum), probit analysis, dose for 90 percent growth reduction): 21 g ai/ha | GR50 LEFCH (LEFCH (Leptochloa chinensis), probit analysis, dose for 50 percent growth reduction): 12 g ai/ha | GR80 LEFCH (LEFCH (Leptochloa chinensis), probit analysis, dose for 80 percent growth reduction): 20 g ai/ha | GR90 LEFCH (LEFCH (Leptochloa chinensis), probit analysis, dose for 90 percent growth reduction): 27 g ai/ha | GR20 ORYSJ (ORYSJ (Oryza sativa, rice crop), probit analysis, dose for 20 percent growth reduction): 14 g ai/ha | GR20 ORYSK (ORYSK (Oryza sativa, rice crop), probit analysis, dose for 20 percent growth reduction): 20 g ai/ha | GR50 SCPJU (SCPJU (Schoenoplectus juncoides Roxb.), probit analysis, dose for 50 percent growth reduction): 0.0002 g ai/ha | GR80 SCPJU (SCPJU (Schoenoplectus juncoides Roxb.), probit analysis, dose for 80 percent growth reduction): 0.0207 g ai/ha | GR90 SCPJU (SCPJU (Schoenoplectus juncoides Roxb.), probit analysis, dose for 90 percent growth reduction): 0.268 g ai/ha | GR50 SEBEX (SEBEX (Sesbania exaltata), probit analysis, dose for 50 percent growth reduction): 3 g ai/ha | GR80 SEBEX (SEBEX (Sesbania exaltata), probit analysis, dose for 80 percent growth reduction): 8 g ai/ha | GR90 SEBEX (SEBEX (Sesbania exaltata), probit analysis, dose for 90 percent growth reduction): 13 g ai/ha | pest or weed control at 17.5 g/ha [1]: 85 to 94% | pest or weed control at 35 g/ha [1]: 95 to 100% | pest or weed control at 70 g/ha [1]: 95 to 100% | pest or weed control at 17.5 g/ha [2]: 95 to 100% | pest or weed control at 35 g/ha [2]: 95 to 100% | pest or weed control at 70 g/ha [2]: 95 to 100% | pest or weed control at 17.5 g/ha [3]: 95 to 100% | pest or weed control at 35 g/ha [3]: 95 to 100% | pest or weed control at 70 g/ha [3]: 95 to 100% | pest or weed control at 17.5 g/ha [4]: 95 to 100% | pest or weed control at 35 g/ha [4]: 95 to 100% | pest or weed control at 70 g/ha [4]: 95 to 100% | pest or weed control at 17.5 g/ha [5]: 95 to 100% | pest or weed control at 35 g/ha [5]: 85 to 94% | pest or weed control at 70 g/ha [5]: 95 to 100% | pest or weed control at 17.5 g/ha [6]: 95 to 100% | pest or weed control at 35 g/ha [6]: 95 to 100% | pest or weed control at 70 g/ha [6]: 95 to 100% | pest or weed control at 17.5 g/ha [7]: 85 to 94% | pest or weed control at 35 g/ha [7]: 95 to 100% | pest or weed control at 70 g/ha [7]: 95 to 100% | pest or weed control at 17.5 g/ha [8]: 60 to 74% | pest or weed control at 35 g/ha [8]: 95 to 100% | pest or weed control at 70 g/ha [8]: 95 to 100% | pest or weed control at 17.5 g/ha [9]: 0 to 29% | pest or weed control at 35 g/ha [9]: 60 to 74% | pest or weed control at 70 g/ha [9]: 75 to 84% | pest or weed control at 17.5 g/ha [10]: 0 to 29% | pest or weed control at 35 g/ha [10]: 45 to 59% | pest or weed control at 70 g/ha [10]: 75 to 84% | pest or weed control at 17.5 g/ha [11]: 95 to 100% | pest or weed control at 35 g/ha [11]: 95 to 100% | pest or weed control at 70 g/ha [11]: 95 to 100% | pest or weed control at 17.5 g/ha [12]: 95 to 100% | pest or weed control at 35 g/ha [12]: 95 to 100% | pest or weed control at 70 g/ha [12]: 95 to 100%

Reference: US9149038B2, “4-amino-6-(heterocyclic)picolinates and 6-amino-2-(heterocyclic)pyrimidine-4-carboxylates and their use as herbicides” (Dow AgroSciences LLC, priority 2013, dated 2015)
